Measured values from patent US20220354855A1, “TREATMENT FOR GASTROINTESTINAL DISORDERS” (Mayo Foundation for Medical Education and Research, priority 2019, published 2022).

What was measured:
[1] = tested on: proximal colon mucosa submucosa preparations from germ free mice; test: Ussing chamber short circuit current (Isc) in response to CDCA, colon mucosa-submucosa preparations; conditions: CDCA applied basolaterally, n=3, Wilcoxon, FIG. 4E
Text: FIGS. 4A-4E: An integrated metabolomics approach provides mechanistic insight into the effect of gut microbiota metabolism on host physiology. FIG. 4A is a series of graphs plotting the abundance of propionate (left), butyrate (center), and acetate (right) as determined by ^1H NMR using stool samples from healthy, IBS-C, and IBS-D subjects (averaged data per subject, pairwise Mann-Whitney tests). FIG. 4B is a pair of graphs plotting the abundance of tryptophan (left) and tryptamine (right) as determined by LC-MS in stool samples from healthy, IBS-C, and IBS-D subjects (averaged data per subject, pairwise Mann-Whitney tests). FIG. 4C is a series of graphs plotting the abundance of cholic acid (CA, left panel), chenodeoxycholic acid (CDCA, center panel), and deoxycholic acid sulfate (DCA-S, right panel) as determined by ^1H NMR with stool samples from healthy, IBS-C, and IBS-D subjects (mixed linear models correcting for subject). FIG. 4D is a series of graphs plotting the abundance of CA, CDCA, and DCA-S as determined by ^1H NMR using stool samples from healthy, IBS-C, and IBS-D subjects (averaged data per subject, pairwise Mann-Whitney tests). […]
Ussing chamber experiments: Colonic mucosal secretory responses were assessed using Ussing chamber setups. […]

[2] = tested on: colonic biopsies from healthy, IBS-C, and IBS-D subjects; test: Ussing chamber short circuit current (ΔIsc) in response to serotonin (5-HT), colonic biopsies; design: species or system human; conditions: cumulative concentrations of 5-HT applied basolaterally; biopsies from IBS-C patients versus HC; FIG. 3C
Text: FIGS. 3A-3F: Integrated top-down bottom-up approach provides mechanistic insight into the effect of gut microbiota metabolism on host physiology. FIG. 3A is a series of graphs plotting the abundance of propionate (left), butyrate (center), and acetate (right) as determined by ^1H NMR. The data are shown as mixed linear models correcting for subject in stool samples from healthy, IBS-C, and IBS-D subjects. FIG. 3B is a graph plotting the abundance of acetate in colonic biopsies. FIG. 3C is a graph plotting maximal ΔIsc (Imax) following application of cumulative concentrations of serotonin (5-HT) basolaterally in colonic biopsies from healthy, IBS-C, and IBS-D subjects. FIG. 3D is a graph plotting baseline Isc observed in colonic biopsies from healthy, IBS-C, and IBS-D subjects (P-values are Tukey HSD adjusted from a linear model). FIG. 3E is a pair of graphs plotting the abundance of tryptophan (left) and tryptamine (right) in stool samples from healthy, IBS-C, and IBS-D subjects. […]
Ussing chamber experiments: Colonic mucosal secretory responses were assessed using Ussing chamber setups. […] Short circuit current (Isc) was continuously recorded using Acquire and Analyze software (Physiologic Instruments). ΔIsc values were calculated using Isc measurements before and after application of compounds to the basolateral side and normalized to the tissue area. […]

SMILES	Isc in response to CDCA (ΔIsc, Imax) [1]	secretory response (maximal ΔIsc, Imax) to serotonin (5-HT) [2]
C[C@H](CCC(=O)O)[C@H]1CC[C@H]2[C@@H]3[C@H](O)C[C@@H]4C[C@H](O)CC[C@]4(C)[C@H]3CC[C@]12C [CDCA, chenodeoxycholic acid]	significant increase in Isc	
NCCc1c[nH]c2ccc(O)cc12 [serotonin (5-HT), serotonin]		significantly lower than HC
